Measurements published in US20120252748A1, “METHODS AND COMPOSITIONS FOR DETERMINING THE RESPONSIVENESS OF CANCER THERAPEUTICS” (New York University, priority 2011, published 2012).
Entries after “also recorded” stand apart in the source; their conditions may differ. Where two headings read alike, the source gives them in different places.

How the values were obtained:
MDA-MB-415 cells = test: Growth response to estrogen, MDA-MB-415 cells; type: cell-based, human; details: MDA-MB-415 (ER-positive, ACSL4-positive), versus control without estrogen, FIG. 5
Experimental: (§1) As indicated above in the results of Example 2, two cell lines which were ER-positive where also ACSL4-positive. A study comparing cell growth in the presence of estrogen of one of these cell lines (MDA-MB-415) to a cell line which is ER-positive and ACSL4 negative (MCF-7) was performed.

MCF-7 cells = test: Growth response to estrogen, MCF-7 cells; type: cell-based, human; details: MCF-7 (ER-positive, ACSL4-negative), versus estrogen-free control, FIG. 5, FIG. 6A
Experimental: as §1
(§2) Additionally, a study was performed in which cell growth in the presence of estrogen of the estrogen dependent MCF-7 cells, which are ACSL4 negative, were compared to modified MCF-7 cells, which were induced to express ACSL4.

[1] = test system: MCF-7 cells genetically manipulated to express ACSL4; test: Growth response to estrogen, MCF-7 cells genetically manipulated to express ACSL4; type: cell-based, human; details: MCF-7 expressing ACSL4, versus estrogen-free conditions, FIG. 6B
Experimental: as §2
(§3) An analysis was performed on breast cancer cell lines that are hormone receptor positive and positive for ACSL4 expression. […] In the present study, estrogen responsive MCF-7 cells, which are ACSL4-negative, were forced to express […]. […] The results were confirmed using conditional and stable transfection techniques.

[2] = test system: MCF-7 cells forced to express ACSL4; test: Tamoxifen sensitivity of MCF-7 cells forced to express ACSL4; type: cell-based, human; details: forced ACSL4 expression in MCF-7, FIG. 16
Experimental: as §3

MDA-MB-231 cells = test: Effect of triacsin C on relative cell number of MDA-MB-231 control and ACSL4 knockdown cells; type: cell-based, human; details: for IC50: FIG. 7C, read-out: half-maximal inhibitory concentration
Experimental: Relative differences in cell number were quantitated using the Cell Titer 96 AQueous Reagent purchased from Promega (Madison, Wis.). Protocols used were as described by the manufacturer.
MDA-MB-231 cells were treated for 48 hours with either a control or ACSL4-specific siRNA. The siRNA was a SmartPool siRNA obtained from Dharmacon, consisting of 4 separate siRNAs.
Next, the effect of triacsin C treatment on MDA-MB-231 control and knockdown cells were compared. […] Mashima et al., Cancer Sci., 100: 1556-1562 (2009).

ACSL1 = target: T1, ACSL1 (Rattus norvegicus, UniProt P18163); details: cited from earlier work
T1 sequence (P18163 1-699): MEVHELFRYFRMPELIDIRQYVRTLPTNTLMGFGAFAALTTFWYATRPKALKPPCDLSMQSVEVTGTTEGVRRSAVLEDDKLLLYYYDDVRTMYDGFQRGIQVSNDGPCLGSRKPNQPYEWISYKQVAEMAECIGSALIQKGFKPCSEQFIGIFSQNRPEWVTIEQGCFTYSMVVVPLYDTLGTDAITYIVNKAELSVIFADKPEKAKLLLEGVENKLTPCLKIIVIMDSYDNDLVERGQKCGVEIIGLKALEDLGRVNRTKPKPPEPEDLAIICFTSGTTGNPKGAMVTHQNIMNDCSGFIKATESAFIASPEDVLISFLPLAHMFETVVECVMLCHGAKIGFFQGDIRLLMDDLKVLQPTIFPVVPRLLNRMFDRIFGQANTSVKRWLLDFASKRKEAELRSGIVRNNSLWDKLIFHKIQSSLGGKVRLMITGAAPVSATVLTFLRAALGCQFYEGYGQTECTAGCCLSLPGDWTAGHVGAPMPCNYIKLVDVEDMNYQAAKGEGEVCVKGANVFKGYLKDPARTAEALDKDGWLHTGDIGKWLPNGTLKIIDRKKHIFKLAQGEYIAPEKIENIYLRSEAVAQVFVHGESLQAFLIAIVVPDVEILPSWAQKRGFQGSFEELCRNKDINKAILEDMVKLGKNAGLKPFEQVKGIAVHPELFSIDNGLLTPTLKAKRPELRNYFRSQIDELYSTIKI

ACSL3 = ACSL3 (Rattus norvegicus, UniProt Q63151); details: Van Horn et al. 2005; cited from earlier work
ACSL3, sequence (Q63151 whole entry): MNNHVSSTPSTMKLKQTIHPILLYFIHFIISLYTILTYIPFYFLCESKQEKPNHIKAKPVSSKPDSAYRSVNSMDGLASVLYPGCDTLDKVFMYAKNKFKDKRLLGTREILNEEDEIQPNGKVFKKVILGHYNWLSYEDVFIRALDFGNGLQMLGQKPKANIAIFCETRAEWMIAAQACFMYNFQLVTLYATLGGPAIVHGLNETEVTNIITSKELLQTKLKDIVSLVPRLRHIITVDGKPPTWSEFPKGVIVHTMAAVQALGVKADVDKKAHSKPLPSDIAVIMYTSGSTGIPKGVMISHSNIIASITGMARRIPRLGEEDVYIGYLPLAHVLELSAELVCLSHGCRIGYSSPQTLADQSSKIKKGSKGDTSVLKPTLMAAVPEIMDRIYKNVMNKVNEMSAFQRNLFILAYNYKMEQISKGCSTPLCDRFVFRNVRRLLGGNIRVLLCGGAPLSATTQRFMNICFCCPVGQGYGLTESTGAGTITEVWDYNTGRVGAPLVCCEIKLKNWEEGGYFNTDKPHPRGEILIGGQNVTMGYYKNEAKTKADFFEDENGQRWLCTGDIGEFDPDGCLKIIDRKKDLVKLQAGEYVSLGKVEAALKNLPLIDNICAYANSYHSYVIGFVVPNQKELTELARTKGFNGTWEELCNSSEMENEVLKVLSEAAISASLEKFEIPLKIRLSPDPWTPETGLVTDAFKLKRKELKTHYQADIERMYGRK

ACSL4 = ACSL4 (Rattus norvegicus, UniProt O35547); details: cited from earlier work
ACSL4, sequence (O35547 whole entry): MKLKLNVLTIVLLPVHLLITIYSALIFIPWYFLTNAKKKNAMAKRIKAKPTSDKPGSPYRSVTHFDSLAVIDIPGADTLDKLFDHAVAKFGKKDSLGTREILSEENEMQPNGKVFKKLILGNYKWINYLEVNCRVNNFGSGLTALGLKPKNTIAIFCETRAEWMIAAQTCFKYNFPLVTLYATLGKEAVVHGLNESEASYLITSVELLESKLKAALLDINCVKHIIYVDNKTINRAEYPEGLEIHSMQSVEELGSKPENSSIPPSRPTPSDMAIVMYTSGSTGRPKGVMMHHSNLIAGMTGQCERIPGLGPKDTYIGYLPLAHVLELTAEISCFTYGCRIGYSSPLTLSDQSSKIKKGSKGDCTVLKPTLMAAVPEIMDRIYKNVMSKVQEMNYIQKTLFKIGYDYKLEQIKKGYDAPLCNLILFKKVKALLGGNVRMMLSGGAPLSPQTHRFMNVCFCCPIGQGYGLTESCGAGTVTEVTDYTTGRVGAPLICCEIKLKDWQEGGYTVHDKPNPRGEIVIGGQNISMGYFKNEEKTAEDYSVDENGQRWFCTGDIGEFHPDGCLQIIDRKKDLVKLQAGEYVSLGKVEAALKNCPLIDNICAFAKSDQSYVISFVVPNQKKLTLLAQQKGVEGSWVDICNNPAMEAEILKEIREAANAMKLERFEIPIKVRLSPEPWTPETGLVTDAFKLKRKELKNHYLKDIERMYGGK

ACSL5 = target: T2, ACSL5 (Rattus norvegicus, UniProt O88813); details: Van Horn et al. 2005; cited from earlier work
T2 sequence (O88813 1-683): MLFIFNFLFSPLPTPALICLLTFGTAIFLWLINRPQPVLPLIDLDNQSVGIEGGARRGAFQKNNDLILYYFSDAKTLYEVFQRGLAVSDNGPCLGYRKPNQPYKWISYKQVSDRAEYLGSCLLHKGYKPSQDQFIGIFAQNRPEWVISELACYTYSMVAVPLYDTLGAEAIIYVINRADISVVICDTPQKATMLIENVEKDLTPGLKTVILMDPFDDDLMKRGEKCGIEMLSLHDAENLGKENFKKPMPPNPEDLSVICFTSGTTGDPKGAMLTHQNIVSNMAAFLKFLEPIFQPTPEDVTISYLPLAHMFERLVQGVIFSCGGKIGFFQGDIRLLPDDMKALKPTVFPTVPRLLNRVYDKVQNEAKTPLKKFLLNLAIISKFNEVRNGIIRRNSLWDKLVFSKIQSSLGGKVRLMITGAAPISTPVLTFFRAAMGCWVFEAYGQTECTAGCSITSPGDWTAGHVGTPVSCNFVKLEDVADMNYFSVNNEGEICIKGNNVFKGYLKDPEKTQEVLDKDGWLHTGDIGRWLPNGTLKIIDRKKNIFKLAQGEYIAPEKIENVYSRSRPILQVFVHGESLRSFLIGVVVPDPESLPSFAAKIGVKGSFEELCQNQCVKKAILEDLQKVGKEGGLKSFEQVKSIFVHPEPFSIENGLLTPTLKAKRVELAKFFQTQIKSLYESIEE

ACSL6 = details: Van Horn et al. 2005; cited from earlier work
[3] = test system: a variety of cancer cells; details: Mashima et al. 2009; cited from earlier work

Question: Which “growth response to estrogen” value (MDA-MB-415 cells) does the source give for estrogen here?
Answer: no significant growth response; also recorded: no increase in cellular proliferation

Question: What about the “growth response to estrogen” value (MCF-7 cells) of the same molecule?
Answer: significant growth response; also recorded: proliferative growth effect

Question: What about the “growth response to estrogen” value [1] of the same molecule?
Answer: became unresponsive to the proliferative effect; also recorded: loss of responsiveness

Question: Which “sensitivity to tamoxifen treatment” value [2] does the source give for CC/C(=C(\c1ccccc1)c1ccc(OCCN(C)C)cc1)c1ccccc1 [tamoxifen] here?
Answer: decrease in the sensitivity

Question: With CCC/C=C/C/C=C/C=C/C=N/NN=O [triacsin C] as the molecule, how does the “increase in triacsin C sensitivity on ablation of ACSL4” value (MDA-MB-231 cells; ACSL4 knockdown versus control MDA-MB-231 cells) read?
Answer: three-fold increase

Question: What about the IC50 (MDA-MB-231 cells; MDA-MB-231 ACSL4 knockdown cells (ACSL4-siRNA)) of the same molecule?
Answer: 560 nM

Question: What about the IC50 (MDA-MB-231 cells; MDA-MB-231 control cells (control siRNA)) of the same molecule?
Answer: 1590 nM

Question: And the “inhibition of ACSL1” value (ACSL1; Van Horn et al. 2005)?
Answer: specific for inhibition

Question: And the “relative sensitivity by reported half-maximal inhibitory concentration values” (ACSL1; ranking among ACSL1, 3 and 4)?
Answer: most sensitive

Question: What about the “inhibition of ACSL3” value (ACSL3) of the same molecule?
Answer: specific for inhibition

Question: And the “inhibition of ACSL4” value (ACSL4; Van Horn et al. 2005)?
Answer: specific for inhibition

Question: And the “relative sensitivity by reported half-maximal inhibitory concentration values” (ACSL4; ranking among ACSL1, 3 and 4)?
Answer: least sensitive

Question: What about the “effect on the activity of ACSL5” value (ACSL5) of the same molecule?
Answer: little or no effect

Question: And the “effect on the activity of ACSL6” value (ACSL6)?
Answer: little or no effect

Question: And the “apoptosis of cancer cells” value [3]?
Answer: induce apoptosis

Question: And the “proliferation of cancer cells” value [3]?
Answer: inhibit proliferation
